Assay results as given in patent US8835440B2, “Cyclic pyrimidin-4-carboxamides as CCR2 receptor antagonists for treatment of inflammation, asthma and COPD” (Boehringer Ingelheim International GmbH, priority 2008, dated 2014).

molecular target: T1, CCR2 (Homo sapiens, UniProt P41597); experiment: CCR2 receptor membrane binding assay ([125I]MCP-1, THP-1 cell membranes, SPA beads); conditions: dissociation constant hKi; [125I]MCP-1 binding to THP-1 membranes
T1 construct: Membranes were prepared from THP-1 cells; endogenous in cells; host or cells: THP-1 cells (membrane preparation)
T1 sequence (P41597 1-360 isoform P41597-2): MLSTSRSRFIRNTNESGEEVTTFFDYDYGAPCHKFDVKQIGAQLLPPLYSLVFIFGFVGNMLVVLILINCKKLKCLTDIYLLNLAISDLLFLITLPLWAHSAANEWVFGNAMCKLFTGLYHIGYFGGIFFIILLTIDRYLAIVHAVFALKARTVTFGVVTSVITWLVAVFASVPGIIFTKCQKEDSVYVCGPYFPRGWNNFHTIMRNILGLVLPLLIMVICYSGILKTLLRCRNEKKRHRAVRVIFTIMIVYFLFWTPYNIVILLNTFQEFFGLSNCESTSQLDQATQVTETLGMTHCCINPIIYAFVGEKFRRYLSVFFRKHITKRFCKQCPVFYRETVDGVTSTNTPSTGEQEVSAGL
Procedure, shortened: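 Human THP-1 monocytic cell membranes, pre-coupled to WGA-PVT SPA beads, were incubated with compound and [125I]MCP-1 (ca. 25000 cpm) in 25 mM HEPES pH 7.2, 5 mM MgCl2, 0.5 mM CaCl2, 0.2% BSA, at 1% DMSO final. Bound radioactivity was counted after 8 h, and Ki was obtained by iterative mass-action fitting.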

| Structure (SMILES) | Ki [nM] |
| --- | --- |
| Cc1c(NCC2CCC(C(C)C)CC2)ncnc1C(=O)N1CCC(N2CCC(N(C)S(C)(=O)=O)CC2)CC1 (centres unmarked) [Example 159f] | 14 |
| Cc1c(NCC2CCCCCC2)ncnc1C(=O)N1CCC(N2CCC(N(C)S(C)(=O)=O)CC2)CC1 [Example 159fa] | 35 |
| COC1COCCC1NC1CCN(C(=O)c2ncnc(NCC3Cc4ccccc4C3)c2C)CC1 (centres unmarked) [Example 159fc] | 13 |
| Cc1c(NCC2CCCC(C)(C)C2)ncnc1C(=O)N1CCC(N2CCC(N(C)S(C)(=O)=O)CC2)CC1 (centres unmarked) [Example 159h] | 39 |
| CNC(=O)C1CCN(C2CCN(C(=O)c3ncnc(NCC4CCCC(c5ccccc5)C4)c3C)CC2)CC1 (centres unmarked) [Example 159i] | 24 |
| CCC1CCC(CNc2ncnc(C(=O)N3CCC(N4CCC(N(C)S(C)(=O)=O)CC4)CC3)c2C)CC1 (centres unmarked) [Example 159k] | 22 |
| COC1CCN(C2CCN(C(=O)c3ncnc(NCC4CCCC(c5ccc(F)cc5)C4)c3C)CC2)CC1 (centres unmarked) [Example 159kb] | 24 |
| Cc1c(NCC2CCC(C)CC2)ncnc1C(=O)N1CCC(N2CCC(N(C)S(C)(=O)=O)CC2)CC1 (centres unmarked) [Example 159l] | 22 |
| COC1CCN(C2CCN(C(=O)c3ncnc(NCC4CCCC(c5ccc(Cl)cc5)C4)c3C)CC2)CC1 (centres unmarked) [Example 159lb] | 12 |
| Cc1c(NCc2coc(-c3ccccc3)c2)ncnc1C(=O)N1CCC(N2CCC(N(C)S(C)(=O)=O)CC2)CC1 [Example 159mb] | 14 |
| Cc1c(NCC2CCCC(c3ccccn3)C2)ncnc1C(=O)N1CCC(N2CCC(N(C)S(C)(=O)=O)CC2)CC1 (centres unmarked) [Example 159n] | 233 |

The remaining lines, values ahead:

| Ki [nM] | Structure (SMILES) |
| --- | --- |
| 199 | Cc1c(NCC2COC(c3ccccc3)C2)ncnc1C(=O)N1CCC(N2CCC(N(C)S(C)(=O)=O)CC2)CC1 (centres unmarked) [Example 159fb] |
| 15 | Cc1c(NCC2CCCC(C)C2)ncnc1C(=O)N1CCC(N2CCC(N(C)S(C)(=O)=O)CC2)CC1 (centres unmarked) [Example 159g] |
| 28 | Cc1nc(NC[C@H]2CC[C@H](c3cccc(C(F)(F)F)c3)O2)c(C)c(C(=O)N2CCC(N3CCC(N(C)S(C)(=O)=O)CC3)CC2)n1 [Example 159ga] |
| 39 | Cc1ccc([C@H]2CC[C@H](CNc3ncnc(C(=O)N4CCC(N5CCC(N(C)S(C)(=O)=O)CC5)CC4)c3C)O2)cc1 [Example 159gb] |
| 26 | Cc1c(NCC2CCc3ccccc3N2)ncnc1C(=O)N1CCC(N2CCC(N(C)S(C)(=O)=O)CC2)CC1 (centres unmarked) [Example 159gc] |
| 27 | Cc1c(NC[C@H]2CC[C@H](c3cccc(C(F)(F)F)c3)O2)ncnc1C(=O)N1CCC(N2CCC(N(C)S(C)(=O)=O)CC2)CC1 [Example 159ha] |
| 20 | Cc1c(NCC2CCC(c3ccc(C(F)(F)F)cc3)O2)ncnc1C(=O)N1CCC(N2CCC(N(C)S(C)(=O)=O)CC2)CC1 (centres unmarked) [Example 159hb] |
| 17 | Cc1cccc([C@H]2CC[C@H](CNc3ncnc(C(=O)N4CCC(N5CCC(N(C)S(C)(=O)=O)CC5)CC4)c3C)O2)c1 [Example 159ia] |
| 15 | Cc1nc(NCC2CCC(c3ccc(C(F)(F)F)cc3)O2)c(C)c(C(=O)N2CCC(N3CCC(N(C)S(C)(=O)=O)CC3)CC2)n1 (centres unmarked) [Example 159ib] |
| 18 | Cc1cccc([C@H]2CC[C@H](CNc3nc(C)nc(C(=O)N4CCC(N5CCC(N(C)S(C)(=O)=O)CC5)CC4)c3C)O2)c1 [Example 159ja] |
| 39 | Cc1ccc([C@H]2CC[C@@H](CNc3ncnc(C(=O)N4CCC(N5CCC(N(C)S(C)(=O)=O)CC5)CC4)c3C)O2)cc1 [Example 159jb] |
| 19 | Cc1nc(NC[C@@H]2CC[C@H](c3ccc(C(F)(F)F)cc3)O2)c(C)c(C(=O)N2CCC(N3CCC(N(C)S(C)(=O)=O)CC3)CC2)n1 [Example 159ka] |
| 19 | Cc1c(NC[C@@H]2CC[C@H](c3ccc(C(F)(F)F)cc3)O2)ncnc1C(=O)N1CCC(N2CCC(N(C)S(C)(=O)=O)CC2)CC1 [Example 159la] |
| 20 | Cc1c(NC[C@@H]2CC[C@@H](c3ccc(C(F)(F)F)cc3)O2)ncnc1C(=O)N1CCC(N2CCC(N(C)S(C)(=O)=O)CC2)CC1 [Example 159ma] |
| 21 | Cc1ccc(C2CCC(CNc3ncnc(C(=O)N4CCC(N5CCC(N(C)S(C)(=O)=O)CC5)CC4)c3C)O2)cc1F (centres unmarked) [Example 159na] |
